Target: T1, Human Polymorphonuclear Leukocyte Elastase (Homo sapiens, UniProt P08246)
T1 construct: Crude extract of human polymorphonuclear leukocytes (PMN) containing elastase activity; from tissue; host or cells: human polymorphonuclear leukocytes (crude extract)
T1 sequence (P08246 30-247 limits assumed): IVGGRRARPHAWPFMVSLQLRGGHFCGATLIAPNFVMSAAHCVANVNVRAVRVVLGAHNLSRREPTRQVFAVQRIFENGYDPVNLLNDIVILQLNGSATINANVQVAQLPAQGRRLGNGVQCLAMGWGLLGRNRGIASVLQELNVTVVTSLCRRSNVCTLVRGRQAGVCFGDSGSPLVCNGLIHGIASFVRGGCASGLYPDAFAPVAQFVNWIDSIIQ
Experiment: Inhibition of human polymorphonuclear leukocyte elastase via hydrolysis of N-t-Boc-alanyl-alanyl-prolylalanine-p-nitroanilide
Assay type: biochemical
Details: Table I; crude PMN extract, Boc-AAPAN substrate, pH 7.5; 50% inhibition 2 minutes after zero time
Method: Protocol Enzyme Assays for the Inhibition of Human Polymorphonuclear Leukocyte Elastase Via Hydrolysis of N-t-Boc-alanyl-alanyl-prolylalanine-p-nitroanilide Reagents:
0.05M TES (N-tris[hydroxymethyl]methyl-2-amino-ethanesulfonic acid) Buffer, pH 7.5.
0.2 mM N-t-Boc-alanyl-alanyl-prolyl-alanine-p-nitroanilide (Boc-AAPAN).
To prepare substrate, the solid (m.w. 550) was first dissolved in 10.0 ml DMSO. Buffer at pH 7.5 was then added to a final volume of 100 ml.
Crude extract of human polymorphonuclear leukocytes (PMN) containing elastase activity.
Inhibitors (cephalosporin sulfone esters) to be tested dissolved in DMSO just before use.
To 1.0 ml of 0.2 mM Boc-AAPAN in a cuvette, 0.01-0.1 ml of DMSO with or without inhibitor was added. After mixing, a measurement was taken at 410 mμ to detect any spontaneous hydrolysis due to presence of test compound. 0.05 Milliliters of PMN extract was then added and the ΔOD/min at 410 mμ was measured and recorded. Beckman model 35 spectrophotometer was used.
Results were reported as ED50, i.e., effective dosage in micrograms per milliliter (μg/ml) for 50% inhibition of the enzyme activity 2 minutes after zero time.
The elastase activity in the crude PMN extract may vary from one preparation to another. A control of each new batch is run, and the volume added in the assay procedure is adjusted according to activity.

IC50 [nM]	SMILES
5370	CO[C@H]1C(=O)N2C(c3nnn[nH]3)=C(COC(=O)N(C)C)CS(=O)(=O)[C@H]12 [R^1=OCH3, A=(CH3)2NCOO, R=H, Q^1=H]
1420	COc1ccc(Cn2nnnc2C2=C(COC(=O)N(C)C)CS(=O)(=O)[C@@H]3[C@@H](OC)C(=O)N23)cc1 [R^1=OCH3, A=(CH3)2NCOO, R=PMB, Q^1=H]
9210	CO[C@H]1C(=O)N2C(c3nnn[nH]3)=C(COC(=O)NCc3ccccc3)CS(=O)(=O)[C@H]12 [R^1=OCH3, A=.phi.CH2NHCOO, R=H, Q^1=H, 3-(N-Benzyl-carbamoyloxy-methyl)-7α-methoxy-4-(1H-tetrazol-5-yl)-3-cephem-1,1-dioxide]
541	COc1ccc(Cn2nnnc2C2=C(COC(=O)NCc3ccccc3)CS(=O)(=O)[C@@H]3[C@@H](OC)C(=O)N23)cc1 [R^1=OCH3, A=.phi.CH2NHCOO, R=PMB, Q^1=H, 3-(N-benzyl-carbamoyloxy-methyl)-7α-methoxy-4-(1-p-methoxybenzyl-tetrazol-5-yl)-3-cephem-1,1-dioxide]

SMILES	IC50 [nM]
CO[C@H]1C(=O)N2C(c3nnn[nH]3)=C(COC(C)=O)CS(=O)(=O)[C@H]12 [R^1=OCH3, A=CH3COO, R=H, Q^1=H, 3-Acetoxymethyl-7α-methoxy-4-(tetrazol-5-yl)-3-cephem-1,1-dioxide]	58300
COc1ccc(Cn2nnnc2C2=C(COC(C)=O)CS(=O)(=O)[C@@H]3[C@@H](OC)C(=O)N23)cc1 [R^1=OCH3, A=CH3COO, R=PMB, Q^1=H, 3-acetoxymethyl-7α-methoxy-4-[1-(p-methoxybenzyl)tetrazol-5-yl]-3-cephem-1,1-dioxide]	1730

Same assay, conditions: Table II; crude PMN extract, Boc-AAPAN substrate, pH 7.5; 50% inhibition 2 minutes after zero time

SMILES	IC50 [nM]
CO[C@H]1C(=O)N2C(c3nnn(Cc4ccccc4C(=O)O)n3)=C(COC(C)=O)CS(=O)(=O)[C@H]12	628
CO[C@H]1C(=O)N2C(c3nnn(Cc4ccccc4C(=O)OC(C)(C)C)n3)=C(COC(C)=O)CS(=O)(=O)[C@H]12	562
CO[C@H]1C(=O)N2C(c3nnn(Cc4ccc(C(=O)O)cc4)n3)=C(COC(C)=O)CS(=O)(=O)[C@H]12 [3-acetoxymethyl-7α-methoxy-4-[2-(-hydroxycarbonylbenzyl)tetrazol-5-yl]-3-cephem-1,1-dioxide]	419
CO[C@H]1C(=O)N2C(c3nnn(Cc4ccc(C(=O)OC(C)(C)C)cc4)n3)=C(COC(C)=O)CS(=O)(=O)[C@H]12 [3-acetoxymethyl-7α-methoxy-4-[2-(p-t-butoxycarbonylbenzyl)tetrazol-5-yl]-3-cephem-1,1-dioxide]	75

The remaining lines, values ahead:

IC50 [nM]	SMILES
7470	CO[C@H]1C(=O)N2C(c3nnn(CC(=O)O)n3)=C(COC(C)=O)CS(=O)(=O)[C@H]12 [Table II: A=CH3COO, R=CH2COOH, Q^1=H]
560	CO[C@H]1C(=O)N2C(c3nnn(C)n3)=C(COC(C)=O)CS(=O)(=O)[C@H]12 [Table II: A=CH3COO, R=CH3, Q^1=H]

Same assay, conditions: Table III, lower part; crude PMN extract, Boc-AAPAN substrate, pH 7.5; 2 minutes after zero time

IC50 [nM]	SMILES
21900	COc1ccc(Cn2nnnc2C2N3C(=O)C(NC(=O)C(F)(F)F)C3SC2(C)C)cc1 (centres unmarked) [drawing 32, n=0]
409	COc1ccc(Cn2nnnc2C2N3C(=O)C(NC(=O)C(F)(F)F)C3S(=O)(=O)C2(C)C)cc1 (centres unmarked) [drawing 32, n=2]

Same assay, conditions: Table III, upper part; crude PMN extract, Boc-AAPAN substrate, pH 7.5; 2 minutes after zero time

IC50 [nM]	SMILES
4380	COc1ccc(Cn2nnnc2[C@@H]2N3C(=O)[C@@H](NC(=O)C(F)(F)F)C3SC2(C)C)cc1 (some centres unmarked) [drawing 31, n=0]
4230	COc1ccc(Cn2nnnc2[C@@H]2N3C(=O)[C@@H](NC(=O)C(F)(F)F)C3[S+]([O-])C2(C)C)cc1 (some centres unmarked) [drawing 31, n=1]
1020	COc1ccc(Cn2nnnc2[C@@H]2N3C(=O)[C@@H](NC(=O)C(F)(F)F)C3S(=O)(=O)C2(C)C)cc1 (some centres unmarked) [drawing 31, n=2]
